Source: patent US12174461B2, “Sustained release of oleic acid from contact lenses” (CooperVision International Limited, priority 2022, dated 2024)

How the values were obtained:
[1] = Amount of DOPG loaded in stenfilcon A lens, by IPA extraction and LCMS; type: physicochemical; details: about 90 minutes
Description: 1,2-Dioleoyl-sn-glycero-3-phospho-rac-(1-glycerol) sodium salt (DOPG) from Sigma-Aldrich was dissolved into a 50% by volume ethanol (EtOH) 50% by volume deionized water solution and sonicated until the DOPG was fully dissolved to provide DOPG loading solutions ranging in concentration from 1 mg/ml to 10 mg/ml.
Silicone hydrogel contact lenses were prepared by curing the formulation for stenfilcon A in polypropylene contact lens molds. The cured stenfilcon A was removed from the molds, and each lens was extracted in EtOH to remove unreacted monomer. The lenses were then placed in the DOPG loading solutions for about 90 minutes and then hydrated in several exchanges of DI water. The lenses were packaged in plastic blisters with about 1.2 ml of a packaging solution comprising phosphate buffered saline (PBS) and autoclaved.
The amount of DOPG in each lens was determined by extracting the lens with isopropanol (IPA) and measuring DOPG in the extract by LCMS. Briefly, each lens was removed from its blister pack, lightly blotted to remove excess packaging solution, and placed in a 20 mL glass vial containing 10 mL 100% IPA. The vials were placed on a bench top shaker at 300 rpm overnight (˜16 hours) at room temperature. For stenfilcon A, a single […] extraction step is sufficient to extract substantially all the DOPG from the lense. Silicone hydrogel lens materials that are more hydrophobic may require a second overnight extraction in order to extract all the DOPG, in which case the IPA from the first extraction step is removed and replaced with 3 mL fresh IPA and shaken overnight at 300 rpm at room temperature. The amount of DOPG in the IPA extract from each lens is determined by LCMS compared to a DOPG standard solution.

[2] = biological target: T1, recombinant human PLA2G2A (sPLA2-IIA) (Homo sapiens, UniProt P14555); test: sPLA2 digestion assay: oleic acid release from stenfilcon A lenses loaded with phospholipid, in ATF with and without sPLA2 (LCMS); type: biochemical; details: 35±2° C., 4 hours; for Oleic acid peak area in ATF (without sPLA2): 4 mm piece of phospholipid-loaded stenfilcon A lens in 100 μL ATF; for Ratio of OA peak area in ATF with and without sPLA2: stenfilcon A lens pieces, 50 ppm sPLA2
T1 construct: purchased Creative BioMart PLA2G2A-669H
T1 sequence (P14555 21-144): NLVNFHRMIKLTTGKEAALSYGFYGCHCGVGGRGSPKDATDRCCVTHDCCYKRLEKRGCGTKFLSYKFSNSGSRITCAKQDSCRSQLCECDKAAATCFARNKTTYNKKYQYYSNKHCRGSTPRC
Description: The phospholipids shown in Table 1 were obtain from Avanti Polar Lipids. 3 mg/ml loading solutions of the phospholipids shown in Table 1 were prepared by adding 2.4 mL ethanol to 9 mg of phospholipid, sonicating (up to 15 minutes) then adding 0.6 mL DI water and sonicating again (up to 15 minutes) to dissolve the phospholipid.
Hydrated contact lenses made from stenfilcon A were washed three times in 3 mL purified water for 30 minutes each time. Each washed lens was placed in 3 mL of a phospholipid loading solution and incubated at room temperature with gentle shaking at 75 rpm for 3 hours. The loaded lenses were then rinsed and hydrated in several exchanges of DI water. The lenses were packaged in a buffered saline contact lens packaging solution and autoclaved.
An artificial tear fluid (ATF) was prepared by adding the first three ingredients listed in Table 2 to a clean class vial and then adding 30 mL of the fourth ingredient.
After autoclave each lens was removed from its package and place in a 6 mL glass vial containing 5 mL of the ATF at room temperature on a shaker at 125 rpm overnight to elute any free oleic acid that may be present in the lens.
Each lens was rinsed in a 6 ml glass vial containing a fresh aliquot of 5 mL ATF for 30 minutes prior to running the digestion assay.
A 50 ppm solution of sPLA2 was prepared in ATF by adding 200 μl ATF to a tube containing 10 μg recombinant human PLA2G2A (Creative BioMart, Cat. No. PLA2G2A-669H). The solution is referred to as ATF+sPLA2. Two 4 mm pieces were cut from each lens. One piece of each lens was placed in a tube with 100 μL ATF and the other piece was placed in a tube containing 100 μL ATF+sPLA2. The tubes were incubated at 35±2° C. for 4 hours with no shaking.
50 μl of the release media from each lens at T=4 hr was transferred to HPLC vials and 500 μl isopropanol (IPA) was added and mixed well. T=0 hr HPLC vials were also prepared (50 μl ATF+500 μl IPA). All vials were sonicated for 15 minutes and centrifuged. The supernatant was removed for LCMS injection.
The supernatants were injected on an LCMS instrument equipped with an ACQUITY UPLC BEH C18 […], 2.1 mm×15 cm column and running a mobile phase gradient from 65% A to 90% B at a flow rate of 0.35 mL/min with A=40% acetonitrile in water with 10 mM ammonium acetate and 0.2% (v/v) ammonium hydroxide, and B=10% acetonitrile in IPA with 10 mM ammonium acetate and 0.2% (v/v) ammonium hydroxide. The mass spec detector is run at negative electrospray mode. The peaks for oleic acid (OA) in the supernatants were measured (m/z trace=281.24). The ratio of OA peak area in ATF with and without sPLA2 was calculated.

[3] = test system: sPLA2 enzymes found in human tears; test: Susceptibility of phospholipid in a silicone hydrogel contact lens body to digestion by tear sPLA2 enzymes; type: biochemical; details: phospholipid present in a silicone hydrogel contact lens body
Text: To achieve these and other advantages, and in accordance with the purposes of the present invention, as embodied and broadly described herein, the present invention, in part relates to a hydrogel contact lens comprising a polymeric lens body loaded with 2-oleoyl phospholipid. The 2-oleoyl phospholipid is advantageously susceptible to digestion by secretory phospholipase 2-acylhydrolase (sPLA2) enzymes found in human tears, especially group IIA secretory phospholipase 2-acylhydrolase (sPLA2-IIA). The 2-oleoyl phospholipid present in the contact lens body is advantageously susceptible to digestion by sPLA2 enzymes found in human tears, especially sPLA2-IIA when the 2-oleoyl phospholipid is present in the polymeric lens body of a silicone hydrogel contact lens, such as a stenfilcon A contact lens. […] For the avoidance of doubt, while the determination of whether a 2-oleoyl phospholipid is susceptible to digestion by sPLA2 enzymes may be carried out by loading the 2-oleoyl phospholipid to a stenfilcon A lens, the contact lens of the invention, including contact lenses comprising 2-oleoyl phospholipid that have been determined to be susceptible to digestion by sPLA2 enzymes, need not be stenfilcon A lenses and may be silicone hydrogel lenses of any formulation. […]

| Compound | Oleic acid peak area in ATF (without sPLA2) ([2]; LCMS m/z 281.24) | Ratio of OA peak area in ATF with and without sPLA2 [2] | further results |
| --- | --- | --- | --- |
| CCCCCCCCCCCCCC(=O)OC[C@H](COP(=O)([O-])OCC[N+](C)(C)C)OC(=O)CCCCCCCCCCCCC [DMPC, 1,2-dimyristoyl-sn-glycero-3-phosphocholine] |  |  | Susceptibility to digestion by sPLA2 enzymes found in human tears [3]: not be susceptible to digestion by sPLA2 enzymes |
| CCCCCCCC/C=C\CCCCCCCC(=O)OC[C@H](COP(=O)([O-])OCC[N+](C)(C)C)OC(=O)CCCCCCC/C=C\CCCCCCCC [DOPC, 1,2-dioleoyl-sn-glycero-3-phosphocholine, reference compound] | 102 | 1.2 |  |
| CCCCCCCC/C=C\CCCCCCCC(=O)OC[C@H](COP(=O)(O)OC[C@H](N)C(=O)O)OC(=O)CCCCCCC/C=C\CCCCCCCC [DOPS, 1,2-dioleoyl-sn-glycero-3-phospho-L-serine] | 88 |  |  |

The next lines start with results.

| Oleic acid peak area in ATF (without sPLA2) ([2]; LCMS m/z 281.24) | Ratio of OA peak area in ATF with and without sPLA2 [2] | Compound | further results |
| --- | --- | --- | --- |
| 36 | 279 | CCCCCCCC/C=C\CCCCCCCC(=O)OC[C@H](COP(=O)(O)OCC(O)CO)OC(=O)CCCCCCC/C=C\CCCCCCCC (mixture of isomers) [DOPG, 1,2-dioleoyl-sn-glycero-3-phospho-(1′-rac-glycerol)] | Average amount of DOPG/lens ([1]; DOPG loading concentration 1.0 mg/mL in 50% EtOH/water): 240 µg; Average amount of DOPG/lens ([1]; DOPG loading concentration 2.5 mg/mL in 50% EtOH/water): 495 µg; Average amount of DOPG/lens ([1]; DOPG loading concentration 5.0 mg/mL in 50% EtOH/water): 760 µg; Average amount of DOPG/lens ([1]; DOPG loading concentration 7.5 mg/ml in 50% EtOH/water): 895 µg; Average amount of DOPG/lens ([1]; DOPG loading concentration 10.0 mg/ml in 50% EtOH/water): 975 µg; Oleic acid peak area in ATF + sPLA2 ([2]; 4 mm piece of phospholipid-loaded stenfilcon A lens in 100 μL ATF + 50 ppm recombinant human PLA2G2A, LCMS m/z 281.24): 9958 |
| 463 | 4.6 | CCCCCCCC/C=C\CCCCCCCC(=O)OC[C@H](COP(=O)(O)OCCN)OC(=O)CCCCCCC/C=C\CCCCCCCC [DOPE, 1,2-dioleoyl-sn-glycero-3-phosphoethanolamine] |  |
